This note sets out measurements from patent publication US20230357179A1, “RAF KINASE INHIBITORS AND METHODS OF USE THEREOF” (Deciphera Pharmaceuticals, LLC, priority 2021, published 2023).

The target of one test is T1, C-Raf kinase (Homo sapiens, UniProt P04049, Y340D/Y341D).
T1 construct: Y340D,; GST (N); purchased Sigma
Description: Biochemical assay for C-Raf.1 (coupled pyruvate kinase/lactate dehydrogenase). The note with it: read-out: CRAF.1 IC50. The gist of the method: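 C-Raf (0.43 nM) with MEK 30.1 nM and 1 mM ATP in Tris pH 7.5/MgCl2 buffer, activity coupled via PK/LDH to NADH oxidation (A340), 6 h at 30° C. Rates from 4–5 h window converted to % inhibition versus controls; IC50 by four-parameter fit, 1% DMSO.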

A further test concerns the target T2, B-Raf (V600E) kinase (Homo sapiens, UniProt P15056, V600E).
T2 construct: B-Raf (V600E) residues 416-766 with a; GST (N); purchased SignalChem
The test can be described thus: Biochemical assay for B-Raf (V600E).1 (coupled pyruvate kinase/lactate dehydrogenase). The following applies: read-out: BRAF V600E.1 IC50. The method in brief:
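0.03 nM B-Raf(V600E) phosphorylating 30.1 nM MEK at 1 mM ATP, pH 7.5, coupled to PK/LDH, with NADH oxidation followed at 340 nm for 6 h at 30 °C. Rates taken from the 3-4 h window. IC50 from a four-parameter fit of percent inhibition.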

In a further test the test system is A375 cells. Description: A375 cell proliferation assay (1), resazurin, 96-well. In kind it is cell-based. The note with it: Homo sapiens, A-375, inhibition of cell proliferation. The method in brief:
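Viability was read by resazurin fluorescence at 540 nm excitation and 600 nm emission, using a 440 μM solution added for 5–6 h at the end of culture. IC50 came from the curve fit.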

In the next test the test system is Miapaca-2 cells. The test can be described thus: MiaPaca-2 cell proliferation assay (1), resazurin, 96-well. In kind it is cell-based. The note with it: Homo sapiens, MIA PaCa-2, inhibition of cell proliferation. The method in brief: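 Three thousand cells per well in DMEM with 10% FBS and 2.5% horse serum exposed to serially diluted compound in triplicate for 67-72 h at 37 °C, 5% CO2. Viability by resazurin (additional 5-6 h), fluorescence ex 540/em 600 nm; IC50 calculated.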

T2 sequence (P15056 416-766 V600E): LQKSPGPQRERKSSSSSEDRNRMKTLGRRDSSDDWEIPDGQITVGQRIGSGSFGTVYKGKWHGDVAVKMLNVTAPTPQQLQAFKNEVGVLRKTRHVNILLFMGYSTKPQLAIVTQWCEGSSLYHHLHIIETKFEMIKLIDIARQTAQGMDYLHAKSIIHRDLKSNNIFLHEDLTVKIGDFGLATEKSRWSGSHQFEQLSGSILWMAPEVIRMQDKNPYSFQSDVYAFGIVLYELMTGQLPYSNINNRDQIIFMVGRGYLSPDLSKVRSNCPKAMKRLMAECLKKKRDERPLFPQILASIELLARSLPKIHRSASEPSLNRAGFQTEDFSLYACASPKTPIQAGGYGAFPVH
T1 sequence (P04049 307-648 Y340D/Y341D): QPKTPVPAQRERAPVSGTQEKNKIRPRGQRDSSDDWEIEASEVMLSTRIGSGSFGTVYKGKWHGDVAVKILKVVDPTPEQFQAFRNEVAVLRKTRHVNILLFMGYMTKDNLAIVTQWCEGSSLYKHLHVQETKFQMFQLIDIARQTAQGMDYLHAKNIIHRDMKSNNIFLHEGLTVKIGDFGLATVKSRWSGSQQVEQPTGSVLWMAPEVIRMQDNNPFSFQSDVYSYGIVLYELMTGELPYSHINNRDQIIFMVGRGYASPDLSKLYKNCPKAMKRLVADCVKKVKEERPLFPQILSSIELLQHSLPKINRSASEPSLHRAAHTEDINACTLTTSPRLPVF

`Cc1ccc(NC(=O)N[C@H]2C[C@](C)(F)C2)cc1-c1cc(-c2ccnc(NC(=O)C3CC3)c2)nc(C2CC2)c1` [Example 61]: the IC50 on C-Raf kinase was not above 0.1 µM; at B-Raf (V600E) kinase, not above 0.1 µM; in the test on A375 cells it was 1 to 10 µM; in the test with Miapaca-2 cells it was 1 to 10 µM.

`COC(C)(C)CCNC(=O)Nc1cc(-c2nccc(-c3ccnc(NC(=O)C4CC4)c3)n2)c(C)cc1F` [Example 83]: the IC50 is not above 0.1 µM at C-Raf kinase, not above 0.1 µM on B-Raf (V600E) kinase, 1 to 10 µM in the test with A375 cells and 1 to 10 µM in the test with Miapaca-2 cells.

Turning to `COC(C)(C)CCNC(=O)Nc1cnc(C)c(-c2nccc(-c3ccnc(NC(=O)C4CC4)c3)n2)c1` [Example 82], the IC50 on C-Raf kinase was not above 0.1 µM; on B-Raf (V600E) kinase, not above 0.1 µM; in the test with A375 cells it was 1 to 10 µM; with Miapaca-2 cells, 1 to 10 µM.

On to `Cc1cc(F)c(NC(=O)NC2CC(C)(C)C2)cc1-c1cc(OCCO)nc(-c2ccnc(NC(=O)C3CC3)c2)c1` [Example 80], for which the IC50 was not above 0.1 µM at C-Raf kinase, not above 0.1 µM at B-Raf (V600E) kinase, not above 0.1 µM in the test with A375 cells and 1 to 10 µM in the test on Miapaca-2 cells.

Consider `CC(=O)Nc1cc(-c2cc(-c3cc(NC(=O)NC4CCC(F)(F)CC4)c(F)cc3C)cc(OCCO)n2)ccn1` [Example 63], for which the IC50 on C-Raf kinase was not above 0.1 µM; on B-Raf (V600E) kinase, not above 0.1 µM; in the test on A375 cells it was not above 0.1 µM; in the test on Miapaca-2 cells, 1 to 10 µM.

On to `Cc1cc(F)c(NC(=O)N2CC[C@H](C(F)(F)F)C2)cc1-c1cncc(-c2cc(NC(=O)C3CC3)ncn2)c1` [Example 216], for which the IC50 on C-Raf kinase is not above 0.1 µM; on B-Raf (V600E) kinase, not above 0.1 µM; in the test with A375 cells, 0.1 to 0.5 µM; in the test on Miapaca-2 cells it was 1 to 10 µM.

In the case of `Cc1cc(F)c(NC(=O)NCCC2(C)CC2)cc1-c1cc(OCCO)nc(-c2ccnc(NC(=O)C3CC3)c2)c1` [Example 76], the IC50 on C-Raf kinase was not above 0.1 µM; at B-Raf (V600E) kinase, not above 0.1 µM; in the test on A375 cells, not above 0.1 µM; with Miapaca-2 cells, 1 to 10 µM.

With `Cc1ccc(NC(=O)Nc2ccnc(C(C)(C)C#N)c2)cc1-c1ccnc(-c2ccnc(C(=O)NC3CC3)c2)c1` [Example 68], the IC50 at C-Raf kinase is not above 0.1 µM; at B-Raf (V600E) kinase, not above 0.1 µM; in the test with A375 cells it was 1 to 10 µM; in the test with Miapaca-2 cells, 1 to 10 µM.

In the case of `Cc1ccc(NC(=O)N2CC[C@@H](C(C)C)C2)cc1-c1cncc(-c2cc(NC(=O)C3CC3)ncn2)c1` [Example 217], the IC50 at C-Raf kinase is not above 0.1 µM; on B-Raf (V600E) kinase, not above 0.1 µM; in the test with A375 cells it was not above 0.1 µM; with Miapaca-2 cells it was 0.5 to 1 µM.

As for `Cc1ccc(NC(=O)Nc2cn(C)nc2C(F)(F)F)cc1-c1cc(OCCO)nc(N2CCOCC2)c1` [Example 42], the IC50 at C-Raf kinase is more than 1 µM; at B-Raf (V600E) kinase it was not above 0.1 µM; in the test on A375 cells, 1 to 10 µM; in the test on Miapaca-2 cells, 1 to 10 µM.
